Test results from ChEMBL document CHEMBL1201862, “PubChem BioAssay data set” (2004).
Activity calls are given as the source filed them.

What was measured:
[1] = target: SUMO E1/E2 (Homo sapiens, UniProt P63279+Q9UBE0+Q9UBT2); assay: SAR analysis of SUMOylation using HTRF in an in-Vitro dose response assay. [Related pubchem assays (depositor defined):AID2006, AID2011, AID2018, AID2069, AID2658]; assay type: functional
[2] = target: Glyceraldehyde-3-phosphate dehydrogenase (Homo sapiens, UniProt P04406)
[3] = target: Cytochrome P450 2D6 (Homo sapiens, UniProt P10635);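 also: CYP2D6 member of a cytochrome P450 panel assay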
[4] = target: T1, Cytochrome P450 1A2 (Homo sapiens, UniProt P05177);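 also: PubChem cytochrome P450 panel assay, CYP1A2 panel member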
T1 sequence (P05177 whole entry): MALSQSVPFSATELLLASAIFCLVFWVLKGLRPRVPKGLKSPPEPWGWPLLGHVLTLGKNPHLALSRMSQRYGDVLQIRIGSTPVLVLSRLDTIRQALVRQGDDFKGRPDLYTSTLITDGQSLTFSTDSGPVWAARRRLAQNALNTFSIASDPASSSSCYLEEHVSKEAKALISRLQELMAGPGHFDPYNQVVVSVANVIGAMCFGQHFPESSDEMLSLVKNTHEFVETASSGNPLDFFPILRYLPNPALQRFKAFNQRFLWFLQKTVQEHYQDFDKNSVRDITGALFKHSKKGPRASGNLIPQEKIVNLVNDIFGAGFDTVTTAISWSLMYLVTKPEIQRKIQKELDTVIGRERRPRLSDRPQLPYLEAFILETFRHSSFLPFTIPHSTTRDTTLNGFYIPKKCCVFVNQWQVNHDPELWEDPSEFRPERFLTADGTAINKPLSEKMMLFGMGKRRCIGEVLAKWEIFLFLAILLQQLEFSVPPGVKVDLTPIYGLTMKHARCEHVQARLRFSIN

[5] = target: T2, Cytochrome P450 2C9 (Homo sapiens, UniProt P11712)
T2 sequence (P11712 whole entry): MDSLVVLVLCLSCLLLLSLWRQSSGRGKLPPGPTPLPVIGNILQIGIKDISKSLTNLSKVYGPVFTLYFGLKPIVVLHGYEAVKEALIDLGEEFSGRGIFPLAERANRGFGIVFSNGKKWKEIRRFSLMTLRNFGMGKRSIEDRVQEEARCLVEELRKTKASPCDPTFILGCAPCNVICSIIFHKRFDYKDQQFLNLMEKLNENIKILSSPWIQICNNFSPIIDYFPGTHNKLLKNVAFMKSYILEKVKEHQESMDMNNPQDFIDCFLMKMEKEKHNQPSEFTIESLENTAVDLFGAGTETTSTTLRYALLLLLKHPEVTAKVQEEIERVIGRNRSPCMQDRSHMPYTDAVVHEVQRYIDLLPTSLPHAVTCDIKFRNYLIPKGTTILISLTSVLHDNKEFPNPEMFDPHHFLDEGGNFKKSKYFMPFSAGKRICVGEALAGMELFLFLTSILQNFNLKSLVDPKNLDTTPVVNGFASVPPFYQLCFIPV

[6] = target: Beta-2 adrenergic receptor (Homo sapiens, UniProt P07550); assay: beta2AR agonists driving receptor internalization, dose response, cell-based, FAP fluorogen, flow cytometry, cherry pick 1 (AID 588763); assay type: functional
[7] = test system: HEK293; assay: cells; assay type: functional, cell-based; conditions: Homo sapiens
[8] = target: T3, Nuclear receptor subfamily 0 group B member 1 (Homo sapiens, UniProt P51843); assay: Luminescence-based cell-based high throughput dose response assay for inhibitors of the orphan nuclear receptor subfamily 0, group B, member 1 (DAX1; NR0B1). [Related pubchem assays (depositor defined):AID504766, AID504790]; assay type: functional
T3 sequence (P51843 whole entry): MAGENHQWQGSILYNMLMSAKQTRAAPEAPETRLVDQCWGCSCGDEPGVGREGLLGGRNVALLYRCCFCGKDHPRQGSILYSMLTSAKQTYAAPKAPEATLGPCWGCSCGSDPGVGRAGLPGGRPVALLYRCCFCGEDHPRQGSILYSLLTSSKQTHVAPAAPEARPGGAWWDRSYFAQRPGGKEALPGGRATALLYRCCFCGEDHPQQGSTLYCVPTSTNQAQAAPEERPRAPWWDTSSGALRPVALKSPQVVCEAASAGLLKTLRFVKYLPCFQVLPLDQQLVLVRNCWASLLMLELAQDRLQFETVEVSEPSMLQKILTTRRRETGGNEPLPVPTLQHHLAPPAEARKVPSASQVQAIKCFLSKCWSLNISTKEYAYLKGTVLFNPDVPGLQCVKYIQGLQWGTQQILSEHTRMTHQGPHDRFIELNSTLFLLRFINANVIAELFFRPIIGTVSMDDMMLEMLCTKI

[9] = target: Phosphomannomutase 2 (Homo sapiens, UniProt O15305); assay: Counter screen SAR assay for PMM2 inhibitors via a fluorescence intensity assay. [Related pubchem assays (depositor defined):AID1545, AID1574]
[10] = target: T4, Mannose-6-phosphate isomerase (Homo sapiens, UniProt P34949); assay: PMI enzyme inhibitors, confirmation, biochemical, fluorescence intensity (AID 1535)
T4 sequence (P34949 whole entry): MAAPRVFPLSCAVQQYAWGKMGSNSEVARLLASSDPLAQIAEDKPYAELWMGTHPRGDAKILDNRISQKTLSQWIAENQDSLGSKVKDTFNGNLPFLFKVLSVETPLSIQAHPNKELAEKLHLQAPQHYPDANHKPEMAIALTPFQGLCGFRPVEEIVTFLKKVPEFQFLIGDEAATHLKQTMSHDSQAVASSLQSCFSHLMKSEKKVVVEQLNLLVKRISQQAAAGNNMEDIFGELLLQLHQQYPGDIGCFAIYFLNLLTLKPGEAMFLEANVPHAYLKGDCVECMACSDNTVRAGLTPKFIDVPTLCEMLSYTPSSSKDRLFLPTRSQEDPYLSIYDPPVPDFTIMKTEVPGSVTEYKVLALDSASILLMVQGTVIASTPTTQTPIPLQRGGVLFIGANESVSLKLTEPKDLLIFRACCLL

[11] = target: Lysine-specific demethylase 4C (Homo sapiens, UniProt Q9H3R0); assay: GASC-1 (JMJD2C) histone demethylase inhibitors, dose response, biochemical, DELFIA europium, cherry-picked samples (AID 488835); assay type: functional
[12] = target: Nonstructural protein 1 (Influenza A virus, UniProt Q194T2); assay type: functional, Influenza A virus (A/California/07/2009(H1N1))
[13] = NIH-3T3 fibroblast cytotoxicity, dose response, cytotoxicity control, cell-based, fluorescence, Alamar Blue, secondary assay (AID 2327); assay type: functional;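 also: NIH-3T3 mouse fibroblasts cultured with fluconazole at 8 µg/mL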
[14] = insulin promoter down-regulators in MIN6 cells, imaging, high-content screening, mouse beta cells (AID 1628); assay type: functional
[15] = cytotoxicity in MIN6 insulinoma cells, dose response, cytotoxicity control, cell-based, mouse insulinoma (AID 2122); assay type: functional;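 also: confirmatory high-throughput counterscreen run to flag cytotoxic compounds; mouse MIN-6 beta cells carrying an insulin promoter eGFP reporter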
[16] = target: T5, Kappa-type opioid receptor (Homo sapiens, UniProt P41145); assay type: functional
T5 sequence (P41145 whole entry): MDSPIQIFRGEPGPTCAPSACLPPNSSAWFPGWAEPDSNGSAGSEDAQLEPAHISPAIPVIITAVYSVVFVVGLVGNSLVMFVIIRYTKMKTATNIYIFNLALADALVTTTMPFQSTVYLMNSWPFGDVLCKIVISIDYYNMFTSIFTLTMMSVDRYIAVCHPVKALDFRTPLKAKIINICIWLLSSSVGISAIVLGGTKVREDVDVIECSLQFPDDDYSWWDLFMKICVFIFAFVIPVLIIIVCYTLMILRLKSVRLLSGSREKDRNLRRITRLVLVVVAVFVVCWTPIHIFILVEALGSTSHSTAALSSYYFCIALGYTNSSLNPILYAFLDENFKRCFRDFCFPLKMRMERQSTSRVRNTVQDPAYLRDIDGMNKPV

[17] = target: T6, Delta-type opioid receptor (Homo sapiens, UniProt P41143); assay: HTS Image-Based Screen for Antagonists of the DOR Receptor. [Related pubchem assays (depositor defined):AID1777, AID1785, AID1786, AID2133]; assay type: functional
T6 sequence (P41143 whole entry): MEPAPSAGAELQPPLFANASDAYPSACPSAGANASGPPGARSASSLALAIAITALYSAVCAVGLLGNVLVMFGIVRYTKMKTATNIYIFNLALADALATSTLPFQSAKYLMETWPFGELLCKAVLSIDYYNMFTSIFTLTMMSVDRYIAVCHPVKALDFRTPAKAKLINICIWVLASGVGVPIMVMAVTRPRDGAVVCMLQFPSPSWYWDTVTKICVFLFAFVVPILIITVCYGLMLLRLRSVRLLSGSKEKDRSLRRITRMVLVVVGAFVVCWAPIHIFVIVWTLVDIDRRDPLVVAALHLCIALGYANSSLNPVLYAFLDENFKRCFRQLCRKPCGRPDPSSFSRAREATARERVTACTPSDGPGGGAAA

[18] = target: T5, Kappa-type opioid receptor; assay type: functional; remark: listed apart in the source
[19] = target: T6, Delta-type opioid receptor; assay: HTS Image-Based Screen for Agonists of the DOR Receptor. [Related pubchem assays (depositor defined):AID1777, AID1786, AID2133]; assay type: functional
[20] = target: Mu-type opioid receptor (Homo sapiens, UniProt P35372); assay: HTS Image-Based Screen for Agonists of the MOR Receptor. [Related pubchem assays (depositor defined):AID1777, AID1785, AID1786, AID2133]; assay type: functional;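 also: imaging of beta-arrestin GFP recruitment into spots after receptor activation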
[21] = target: T7, Beta-galactosidase (Escherichia coli, UniProt Q8VNN2); assay type: functional
[22] = target: T8, Voltage-gated N-type calcium channel alpha-1B subunit/Amyloid beta A4 precursor protein-binding family A member 1 (Homo sapiens, UniProt Q00975+Q02410); assay: disruptors of Mint-PDZ/N-type channel peptide interaction – biochemical, HTRF, set 2, SAR follow-up (AID 434980); assay type: functional
T8 sequence (Q00975 whole entry): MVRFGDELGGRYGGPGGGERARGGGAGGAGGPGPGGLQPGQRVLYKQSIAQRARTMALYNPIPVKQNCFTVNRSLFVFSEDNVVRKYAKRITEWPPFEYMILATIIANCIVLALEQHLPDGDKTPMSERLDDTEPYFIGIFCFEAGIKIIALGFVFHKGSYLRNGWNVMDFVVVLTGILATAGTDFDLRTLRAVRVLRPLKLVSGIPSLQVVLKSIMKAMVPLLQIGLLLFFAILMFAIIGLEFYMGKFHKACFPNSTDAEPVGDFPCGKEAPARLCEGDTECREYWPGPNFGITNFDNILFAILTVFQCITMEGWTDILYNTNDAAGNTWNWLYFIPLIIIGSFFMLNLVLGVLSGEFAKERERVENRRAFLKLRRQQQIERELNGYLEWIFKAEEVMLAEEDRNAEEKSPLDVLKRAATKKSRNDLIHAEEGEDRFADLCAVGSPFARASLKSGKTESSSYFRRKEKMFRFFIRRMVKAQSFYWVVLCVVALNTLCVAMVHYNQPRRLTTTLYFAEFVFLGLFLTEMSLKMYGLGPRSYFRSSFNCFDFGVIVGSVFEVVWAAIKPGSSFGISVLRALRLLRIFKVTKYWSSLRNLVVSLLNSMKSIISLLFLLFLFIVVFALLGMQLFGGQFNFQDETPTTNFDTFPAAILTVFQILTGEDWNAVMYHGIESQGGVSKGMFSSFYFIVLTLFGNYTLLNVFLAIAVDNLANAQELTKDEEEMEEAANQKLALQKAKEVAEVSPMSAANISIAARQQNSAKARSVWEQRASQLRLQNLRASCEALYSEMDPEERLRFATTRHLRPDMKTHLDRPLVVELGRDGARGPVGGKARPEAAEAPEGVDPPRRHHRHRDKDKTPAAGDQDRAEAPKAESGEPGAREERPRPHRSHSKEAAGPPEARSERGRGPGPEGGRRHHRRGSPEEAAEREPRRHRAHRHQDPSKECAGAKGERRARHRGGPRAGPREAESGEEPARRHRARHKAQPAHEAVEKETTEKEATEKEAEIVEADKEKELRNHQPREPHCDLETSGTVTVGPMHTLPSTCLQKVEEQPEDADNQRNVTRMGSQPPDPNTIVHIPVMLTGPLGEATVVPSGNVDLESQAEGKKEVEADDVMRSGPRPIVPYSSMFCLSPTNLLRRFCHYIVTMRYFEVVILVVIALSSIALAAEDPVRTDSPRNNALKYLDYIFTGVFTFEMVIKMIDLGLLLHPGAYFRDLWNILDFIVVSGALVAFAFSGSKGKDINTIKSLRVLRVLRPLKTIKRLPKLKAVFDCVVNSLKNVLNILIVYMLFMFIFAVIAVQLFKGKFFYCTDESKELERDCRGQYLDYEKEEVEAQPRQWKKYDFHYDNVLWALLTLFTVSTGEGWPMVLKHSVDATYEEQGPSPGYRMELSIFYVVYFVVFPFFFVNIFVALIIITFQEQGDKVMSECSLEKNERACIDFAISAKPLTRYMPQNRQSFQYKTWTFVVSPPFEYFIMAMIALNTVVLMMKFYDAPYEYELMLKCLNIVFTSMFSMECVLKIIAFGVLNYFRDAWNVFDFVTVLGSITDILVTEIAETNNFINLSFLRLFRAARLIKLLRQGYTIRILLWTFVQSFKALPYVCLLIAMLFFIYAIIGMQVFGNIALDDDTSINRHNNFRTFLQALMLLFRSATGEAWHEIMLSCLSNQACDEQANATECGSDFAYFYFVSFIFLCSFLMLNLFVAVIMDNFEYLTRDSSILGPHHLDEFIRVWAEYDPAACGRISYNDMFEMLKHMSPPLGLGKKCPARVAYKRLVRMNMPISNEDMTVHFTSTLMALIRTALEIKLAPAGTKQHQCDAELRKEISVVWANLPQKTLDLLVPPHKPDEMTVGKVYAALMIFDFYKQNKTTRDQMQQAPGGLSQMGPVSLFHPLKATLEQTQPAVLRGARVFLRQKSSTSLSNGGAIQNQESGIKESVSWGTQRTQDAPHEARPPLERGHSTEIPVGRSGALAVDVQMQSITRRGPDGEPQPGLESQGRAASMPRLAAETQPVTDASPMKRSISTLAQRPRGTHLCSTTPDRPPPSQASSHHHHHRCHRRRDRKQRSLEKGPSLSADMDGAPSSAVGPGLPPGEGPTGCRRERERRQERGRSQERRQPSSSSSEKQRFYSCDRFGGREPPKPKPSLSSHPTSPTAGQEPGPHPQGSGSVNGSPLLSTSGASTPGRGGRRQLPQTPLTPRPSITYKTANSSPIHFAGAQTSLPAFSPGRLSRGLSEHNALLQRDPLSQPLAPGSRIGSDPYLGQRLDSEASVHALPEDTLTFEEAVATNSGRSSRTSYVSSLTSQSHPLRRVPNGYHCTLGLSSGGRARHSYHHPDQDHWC
T8 sequence (Q02410 whole entry): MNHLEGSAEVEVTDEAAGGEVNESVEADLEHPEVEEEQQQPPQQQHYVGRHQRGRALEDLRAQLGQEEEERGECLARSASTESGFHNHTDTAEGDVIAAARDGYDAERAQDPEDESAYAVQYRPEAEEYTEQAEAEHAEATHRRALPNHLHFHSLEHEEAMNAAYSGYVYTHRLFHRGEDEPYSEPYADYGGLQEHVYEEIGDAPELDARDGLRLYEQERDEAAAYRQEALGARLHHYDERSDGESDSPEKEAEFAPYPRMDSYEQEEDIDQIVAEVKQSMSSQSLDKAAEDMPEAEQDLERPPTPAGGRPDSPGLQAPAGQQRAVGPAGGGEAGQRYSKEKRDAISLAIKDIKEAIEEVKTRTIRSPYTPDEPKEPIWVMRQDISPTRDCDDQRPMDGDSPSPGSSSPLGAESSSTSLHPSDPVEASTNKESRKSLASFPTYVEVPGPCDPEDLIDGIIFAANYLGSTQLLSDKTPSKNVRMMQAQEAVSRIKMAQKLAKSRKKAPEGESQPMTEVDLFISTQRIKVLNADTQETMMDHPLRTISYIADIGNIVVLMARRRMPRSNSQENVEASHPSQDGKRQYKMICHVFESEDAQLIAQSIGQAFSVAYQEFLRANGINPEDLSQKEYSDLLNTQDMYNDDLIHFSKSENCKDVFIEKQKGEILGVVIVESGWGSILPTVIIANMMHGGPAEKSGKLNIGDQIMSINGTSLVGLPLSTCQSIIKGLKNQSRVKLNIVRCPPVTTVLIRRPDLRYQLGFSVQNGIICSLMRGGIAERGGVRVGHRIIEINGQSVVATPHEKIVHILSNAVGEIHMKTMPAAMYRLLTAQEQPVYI

[23] = target: T8, Voltage-gated N-type calcium channel alpha-1B subunit/Amyloid beta A4 precursor protein-binding family A member 1; assay: disruptors of Mint-PDZ/N-type channel peptide interaction – biochemical, HTRF, SAR follow-up (AID 2489); assay type: functional
[24] = target: Cytochrome P450 2C19 (Homo sapiens, UniProt P33261); assay: Cytochrome panel assay with activity outcomes. Panel member name: p450-cyp2c19 Compounds with AC50 equal or less than 10 uM are considered active; assay type: functional
Sequence of Cytochrome P450 2C19 (P33261 whole entry): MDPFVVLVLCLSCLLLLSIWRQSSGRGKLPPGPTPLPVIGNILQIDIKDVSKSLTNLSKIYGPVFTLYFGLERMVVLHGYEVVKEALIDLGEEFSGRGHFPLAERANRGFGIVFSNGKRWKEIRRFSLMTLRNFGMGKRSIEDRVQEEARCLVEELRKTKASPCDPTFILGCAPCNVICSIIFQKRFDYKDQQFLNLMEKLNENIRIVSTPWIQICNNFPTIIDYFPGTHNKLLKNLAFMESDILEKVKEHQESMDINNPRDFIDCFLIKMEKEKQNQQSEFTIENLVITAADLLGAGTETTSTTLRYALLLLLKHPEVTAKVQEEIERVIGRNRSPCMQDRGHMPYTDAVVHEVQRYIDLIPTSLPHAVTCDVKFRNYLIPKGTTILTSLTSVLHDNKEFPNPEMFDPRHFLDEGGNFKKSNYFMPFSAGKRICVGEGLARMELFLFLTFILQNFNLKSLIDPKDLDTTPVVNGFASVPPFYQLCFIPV

[25] = test system: Jurkat; assay: SAR Analysis of small molecule inhibitors of T-cell specific antigen receptor-induced NF-kB activation in a Jurkat cell line using a luminescence assay - Set 2. [Related pubchem assays (depositor defined):AID435003, AID435012, AID465]; assay type: functional, cell-based; conditions: Homo sapiens
[26] = target: T2, Cytochrome P450 2C9; remark: listed apart in the source
[27] = test system: HEK293; assay: cytotoxicity in HEK293T NF-kB-Luc cells, SAR follow-up, cytotoxicity control for NF-kB activator project, cell-based, resazurin fluorescence (AID 493251); assay type: functional; conditions: Homo sapiens
[28] = cytotoxicity in HEK-293T cells, dose response, cytotoxicity control for BCR NF-kB inhibitor project, luminescence, B-cell screen hits (AID 489021); assay type: functional, cell-based;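 also: HEK-293T cells carrying an NF-kB luciferase reporter; cells exposed to compound for about 14 hours before viability readout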
[29] = test system: HEK293; assay: SAR Analysis of small molecule inhibitors of T-cell specific antigen receptor-induced NF-kB activation in a HEK-293T cell line using a luminescence assay - Set 2. [Related pubchem assays (depositor defined):AID435003, AID435012, AID489026]; assay type: functional, cell-based; conditions: Homo sapiens
[30] = test system: A-375; assay: A375 melanoma cell viability reduction, dose response, counter-screen for MITF modulator project, cherry-pick samples, set 2 (AID 540335); assay type: functional, cell-based; conditions: Homo sapiens
[31] = test system: A-375; assay: MITF: Counter assay: A375 proliferation Measured in Cell-Based System Using Plate Reader - 2084-03_Inhibitor_Dose_DryPowder_Activity. [Related pubchem assays (depositor defined):AID488944]; assay type: functional; conditions: Homo sapiens
[32] = target: T9, Microphthalmia-associated transcription factor (Homo sapiens, UniProt O75030); assay: TRPM1 promoter luciferase signal decrease, dose response, MITF inhibitor project, cell-based, SK-MEL-5, cherry-picked, set 3 (AID 493073); assay type: functional
T9 sequence (O75030 whole entry): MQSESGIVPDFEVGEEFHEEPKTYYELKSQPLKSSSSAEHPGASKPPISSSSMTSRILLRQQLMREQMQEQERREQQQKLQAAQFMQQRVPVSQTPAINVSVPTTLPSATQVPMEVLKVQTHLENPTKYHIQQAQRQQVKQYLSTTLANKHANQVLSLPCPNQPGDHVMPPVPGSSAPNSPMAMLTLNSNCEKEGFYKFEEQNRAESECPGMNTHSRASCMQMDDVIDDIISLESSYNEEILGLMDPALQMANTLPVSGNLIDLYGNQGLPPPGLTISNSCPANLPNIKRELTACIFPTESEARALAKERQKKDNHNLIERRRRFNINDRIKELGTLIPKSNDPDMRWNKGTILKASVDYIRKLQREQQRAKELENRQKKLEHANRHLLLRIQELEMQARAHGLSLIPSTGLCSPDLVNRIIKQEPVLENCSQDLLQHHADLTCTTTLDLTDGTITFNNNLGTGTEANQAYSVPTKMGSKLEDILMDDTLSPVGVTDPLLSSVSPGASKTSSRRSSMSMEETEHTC

[33] = inhibitors of intracellular T. cruzi replication, confirmation, NIH3T3 host cells, beta-gal luminescence (AID 2044); assay type: functional, cell-based;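 also: intracellular parasites grown in NIH/3T3 mouse fibroblasts as host cells; luminescent beta-galactosidase reporter signal from transgenic T. cruzi replicating inside host cells; inhibitors lower the luminescence signal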
[34] = target: T7, Beta-galactosidase; assay: beta-galactosidase enzyme inhibitors and activators, dose response, artefact control for CCR6 antagonist project, biochemical, E. coli enzyme, set 3 (AID 504712); assay type: functional
[35] = cytotoxicity toward NIH3T3 fibroblasts, dose response, counter-screen, cell-based, ATP luminescence, mouse fibroblasts (AID 2010); assay type: functional;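 also: cells exposed to compound for about 90 hours before reading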

## NS(=O)(=O)c1ccc2c(c1)C1C=CCC1C(c1ccc([N+](=O)[O-])cc1)N2 (stereo not drawn)
[1]
  IC50: > 100 µM (inactive)
[2]
  IC50: > 100 µM (not active)

## COC(=O)N1CCC[C@@]2(CCN(c3ccncc3)C2)C1
[3]
  AC50: inconclusive
[4]
  AC50: inconclusive
[5]
  AC50: inconclusive

## C=CCc1ccc(OCCOc2ccc(/C=N/n3cnnc3)cc2OCC)c(OC)c1
[6]
  EC50: 587 nM (active)

## CC(=O)c1c(C)[nH]c(C(=O)Nc2ccc(Cl)c(S(=O)(=O)N(C)C)c2)c1C
[7]
  IC50: > 67.5 µM (inactive)
[8]
  IC50: > 67.5 µM (inactive)

## O=[N+]([O-])c1ccc(/N=c2/ssnc2Cl)c([N+](=O)[O-])c1
[9]
  IC50: 58.4 µM (active)
[10]
  IC50: 3.52 µM (active)

## Cc1ccc(O)c(NN=C2C(=O)CC(C)(C)CC2=O)c1
[11]
  AC50: 10.5 µM (active)
[12]
  IC50: 13.2 µM (active)
[13]
  EC50: > 160 µM (inactive)

## Cn1c2c(c(=O)[nH]c1=O)C(c1cccc(O)c1)C1=C(O)c3ccccc3C1=N2 (stereo not drawn)
[14]
  IC50: 1.87 µM (active)
[15]
  IC50: 1.92 µM (active)

## CCN(CCCNC(=O)C1CCN(S(=O)(=O)N2CCC3(CC2)OCCO3)CC1)c1ccccc1
[16]
  IC50: 9.46 µM (active)
[17]
  IC50: > 32 µM (inactive)
[18]
  IC50: 9.69 µM
[19]
  EC50: > 32 µM (inactive)
[20]
  EC50: > 32 µM (inactive)
[21]
  EC50: > 31.5 µM (inactive)

## COc1ccccc1COC(=O)COC(=O)c1cc(-c2ccco2)nc2ccccc12
[1]
  IC50: 12.9 µM (active)
[22]
  IC50: 6.59 µM (active)
[23]
  IC50: 9.09 µM (active)

## CCOc1ccc(CNC(=O)c2ccc(NC(=O)C3=CSCCO3)cc2)cc1
[6]
  EC50: 60.8 nM (active)

## CS(=O)(=O)N1CCC2(CCN(c3cccc(-c4ccccc4)c3)CC2)CC1
[24]
  AC50: inconclusive
[4]
  AC50: inconclusive
[5]
  AC50: inconclusive

## CNC(=O)CCc1nc(-c2ccc(C(C)(C)C)cc2)no1
[24]; read-out: AC50
  AC50: 39.8 µM (inconclusive)
[25]
  IC50: > 79 µM (inactive)
[26]
  AC50: 355 nM (inconclusive)
[27]
  IC50: > 80 µM (inactive)
[28]
  IC50: > 80 µM (inactive)
[29]
  IC50: 53.1 µM (inactive)

## O=C(Nc1ccc(-c2cn3c(n2)SCC3)cc1)c1ccco1
[30]
  AC50: > 35 µM (active)
[31]
  AC50: > 35 µM (active)

## CN1C(C(=O)Nc2cccc(O)c2)=CC(c2ccco2)=NS1(=O)=O
[7]
  IC50: > 67.6 µM (inactive)
[8]
  IC50: > 67.6 µM (inactive)

## CS(=O)(=O)c1ccc([S+]([O-])CC(=O)OCc2ccccc2)c([N+](=O)[O-])c1 (stereo not drawn)
[32]
  AC50: 5.46 µM (active)
[33]
  EC50: 3.05 µM (active)
[34]
  IC50: > 66.6 µM (inactive)
[30]
  AC50: 21 µM (active)
[35]
  EC50: 2.01 µM (active)
